Here are results for two molecules from US9078864B2, “Agonists for antimicrobial peptide systems” (priority 2008, dated 2015).

For one series, the system named is shigellosis. To be noted: patients with shigellosis; unit not given; cited from earlier work.
The test system of the next series is hBD-1 mRNA. Nature of the series: hBD-1 mRNA expression in VA10 cells, real time RT-PCR. Conditions: 4 mM, 24 hours, compared with CAMP induction. Format: cell-based, human. The method, then: FIG. 11: Induction of hBD-1 mRNA expression by PBA. VA10 cells were stimulated with 4 mM of PBA or solvent alone (Control) for 24 hours. hBD-1 mRNA levels were determined by real time RT-PCR, CAMP induction shown for comparison. Individual samples were normalized to total RNA input. Results were normalized to expression in control samples where controls were given the arbitrary value of one. Data is normalized to control and plotted as mean+SE from at least three independent experiments.
CAMP is not the only antimicrobial defense gene that is induced by PBA.
Background: Quantitative PCR measures a nucleic acid by following its amplification.

The test system of series [1] is CAMP gene, encoding LL-37. Nature of the series: CAMP (LL-37) mRNA expression in VA10 lung epithelial cells, real time RT-PCR. Format: cell-based, human. The method, then: LL-37 expression in lung epithelial cells treated with different agents Lung epithelial cells (VA 10) were grown to confluency under standard conditions and the agents to be tested added at the indicated concentrations (see below). mRNA was isolated 24 hours after treatment and measured by real time reverse transcription PCR.
Six-well plates were seeded with 1.0×10^6 cells per well and grown for two days. Medium was then exchanged and different wells were left untreated, supplemented with 2 mM sodium butyrate or 2 mM sodium 4-phenylbutyrate. The cells were incubated for 48 h and total RNA was prepared using the RNEasy kit (Qiagen). Total RNA concentrations were measured using the Quant-iT RiboGreen RNA assay kit (Invitrogen). Superscript III first-strand synthesis system (Invitrogen) was used to synthesize cDNA using random primers according to the protocol of the manufacturer. […] Results were normalized to total RNA quantity, presented as relative fold induction of untreated control cells.
Total RNA was isolated from the cells and CAMP mRNA expression levels analyzed by real time RT-PCR.

Series [2] relates to acetylation of histone H3 and H4 at the CAMP gene proximal promoter. Put plainly: Histone H3 and H4 acetylation at the CAMP gene promoter, quantitative ChIP in VA10 cells. Format: cell-based, human. Conditions: 4 mM, 24 hours, listed as PBA. Here is the method:
FIG. 9: VA10 cells were stimulated with 4 mM of PBA or solvent alone (Control) for 24 hours. Acetylation of histone H3 and H4 was analyzed by quantitative ChIP using antibodies against the respective acetylated histones. Results were normalized to normal rabbit IgG and total input and plotted as fold precipitation over IgG. Normalized data is plotted as mean+SE from independent experiments (n=3).
The effect of PBA on acetylation of histone H3 and H4 by quantitative chromatin immunoprecipitation was assessed.

Series [3] relates to CAMP mRNA in HT-29 (Human colonic adenocarcinoma cell line). Nature of the series: CAMP gene expression by PBA in HT-29 cells. It is filed as cell-based. To be noted: 4 mM, 8, 24 and 48 hours. The method, then: (§1) FIG. 3: Induction of CAMP gene mRNA expression by PBA. A) VA10 cells were stimulated with the indicated concentrations of PBA or solvent (Control) for 24 hours. B) VA10 cells were stimulated with 4 mM PBA or treated with solvent alone and harvested after the indicated period of time. C) A498, HT-29 and U937 cells were stimulated with 4 mM PBA or solvent only and harvested after the indicated period of time. CAMP mRNA levels were determined by real time RT-PCR. Individual samples were normalized to total RNA input. Results were normalized to expression in control samples where controls were given the arbitrary value of one. The normalized data is plotted as mean+SE from at least three independent experiments.
(§2) In order to investigate the effect of PBA on other cell lines, HT-29 (Human colonic adenocarcinoma cell line), […] (Human renal carcinoma cell line) and U937 (Human leukemic monocyte lymphoma cell line) were stimulated with 4 mM PBA for 8, 24 and 48 hours. Total RNA was isolated from the cells and CAMP mRNA expression levels analyzed by real time RT-PCR.

Another series concerns VDR co-activator genes. Nature of the series: VDR co-activator mRNA levels in VA10 cells, real time RT-PCR. Format: cell-based, human. Conditions: 4 mM, 24 hours. Here is the method: VA10 cells were stimulated with 4 mM of PBA or solvent alone (Control) for 24 hours. mRNA levels of the respective VDR co-activators were determined by real time RT-PCR. Individual samples were normalized to total RNA input. Results were normalized to expression in control samples where controls were given the arbitrary value of one. Data is normalized to control and plotted as mean+SE from three independent experiments.
Hypothesizing that the synergistic effect between PBA and 1,25(OH)2D3 was due to an induction of VDR co-activator genes by PBA, we analyzed the effect of PBA on mRNA levels of several known VDR co-activator genes in VA10. […] These co-activators are therefore not involved in the PBA-induced effects on gene expression.

For series [4] the following is noted: 528 mg/day to 1.12 g/day, 2-6 weeks, adult IBD patients; cited from earlier work.
Series [5] concerns CAMP mRNA in A497 (Human renal carcinoma cell line). Put plainly: CAMP gene expression by PBA in A497 cells. Format: cell-based. Conditions: 4 mM, 8, 24 and 48 hours. The method, then:
as §1, §2

The subject of series [6] is CAMP mRNA in U937 (Human leukemic monocyte lymphoma cell line). Put plainly: CAMP gene expression by PBA in U937 cells. Format: cell-based. To be noted: 4 mM, 8, 24 and 48 hours. The method, then: as §1, §2

Each structure is given as a SMILES string. “Also recorded” adds a separate entry of the source.

With `CC(C)(C)C(=O)OCOC(=O)[C@@H]1N2C(=O)[C@@H](/N=C/N3CCCCCC3)[C@H]2SC1(C)C` [pivmecillinam], the “duration of diarrhoea (mean±SD)” value in the series with shigellosis is 3.2±1.8.

On to `O=C([O-])CCCc1ccccc1.[Na+]` [sodium 4-phenylbutyrate], for which the “hBD-1 mRNA expression” value in the series on hBD-1 mRNA is reported as “induced, although at lower level than CAMP”. The “dose dependence of response at higher concentrations” value in [1] (8 mM, earlier experiments, results not shown) is “ceased to be dose-dependent”. The “LL-37 mRNA expression (fold-induction of CAMP mRNA)” value in [1] (VA10 cells, 2 mM, 24 hours, compared with sodium butyrate 2 mM and vitamin D3 100 nM) is “more effective inducer of LL-37 mRNA expression than butyrate or vitamin D”. Besides, the “time and dose dependence of CAMP mRNA expression” value in [1] (VA10 cells, 4 mM over different time points, different concentrations for 24 hours) is “dependent on PBA dose and increased over time”. For the same molecule, in [2], the “histone H3 and H4 acetylation at the CAMP gene proximal promoter” value is “No significant differences; also recorded: No significant change”. Further, the “CAMP mRNA expression” value in series [3], in series [5] and in series [6] was “significantly increased” each time. Besides, in the series on VDR co-activator genes, the “mRNA levels of VDR co-activator genes” value is given as “None of the genes were significantly upregulated”. Moreover, in [4], the “safety of topical (enema) dosing” value is given as “None of these studies reported any adverse effect or reactions”.
